Target: Carbonic anhydrase 9 (Homo sapiens, UniProt Q16790)
Experiment: Inhibition of human carbonic anhydrase-9 incubated for 10 mins prior to testing by stopped-flow CO2 hydrase assay

| Ki | Structure (SMILES) |
| --- | --- |
| 71.6 nM | Cc1nn(-c2ccc(S(N)(=O)=O)cc2)c(Cl)c1C1CC(c2ccccc2)=NN1c1ccc(S(N)(=O)=O)cc1 (configuration not stated) |
| 70.7 nM | Cc1ccc(C2=NN(c3ccc(S(N)(=O)=O)cc3)C(c3c(C)nn(-c4ccc(S(N)(=O)=O)cc4)c3Cl)C2)cc1 (configuration not stated) |
| 52.4 nM | COc1ccc(C2=NN(c3ccc(S(N)(=O)=O)cc3)C(c3c(C)nn(-c4ccc(S(N)(=O)=O)cc4)c3Cl)C2)cc1 (configuration not stated) |
| 44.7 nM | Cc1nn(-c2ccc(S(N)(=O)=O)cc2)c(Cl)c1C1CC(c2ccc(F)cc2)=NN1c1ccc(S(N)(=O)=O)cc1 (configuration not stated) |
| 32.9 nM | Cc1nn(-c2ccc(S(N)(=O)=O)cc2)c(Cl)c1C1CC(c2ccc(Cl)cc2)=NN1c1ccc(S(N)(=O)=O)cc1 (configuration not stated) |
| 44.4 nM | Cc1nn(-c2ccc(S(N)(=O)=O)cc2)c(Cl)c1C1CC(c2ccc(Br)cc2)=NN1c1ccc(S(N)(=O)=O)cc1 (configuration not stated) |
| 63.1 nM | CC(=O)N1N=C(c2ccccc2)CC1c1c(C)nn(-c2ccc(S(N)(=O)=O)cc2)c1Cl (configuration not stated) |
| 67.1 nM | CC(=O)N1N=C(c2ccc(C)cc2)CC1c1c(C)nn(-c2ccc(S(N)(=O)=O)cc2)c1Cl (configuration not stated) |
| 56.9 nM | COc1ccc(C2=NN(C(C)=O)C(c3c(C)nn(-c4ccc(S(N)(=O)=O)cc4)c3Cl)C2)cc1 (configuration not stated) |
| 6.9 nM | CC(=O)N1N=C(c2ccc(F)cc2)CC1c1c(C)nn(-c2ccc(S(N)(=O)=O)cc2)c1Cl (configuration not stated) |
| 30.8 nM | CC(=O)N1N=C(c2ccc(Cl)cc2)CC1c1c(C)nn(-c2ccc(S(N)(=O)=O)cc2)c1Cl (configuration not stated) |
| 67.2 nM | CC(=O)N1N=C(c2ccc(Br)cc2)CC1c1c(C)nn(-c2ccc(S(N)(=O)=O)cc2)c1Cl (configuration not stated) |
